As usually defined, the IC50 is the point on the concentration scale where inhibition reaches its midpoint.

The structures appear in SMILES notation. Bridge positions count the residues as written; N and C are the ends. Square brackets hold non-standard residues; d marks the D form. Peptide text beside a SMILES is read from it. * marks the point of attachment. ξ: configuration not given here. Phe(4-CONH2) = NC(=O)c1ccc(C[C@H](N)C(=O)O)cc1; Phe(4-COOH) = N[C@@H](Cc1ccc(C(=O)O)cc1)C(=O)O; Bip = N[C@@H](Cc1ccc(-c2ccccc2)cc1)C(=O)O; Phe(3-Me) = Cc1cccc(C[C@H](N)C(=O)O)c1; NH(CH2)12COOH = O=C(O)CCCCCCCCCCCCN*; Val(3-OH) = CC(C)(O)[C@H](N)C(=O)O; dAla(cPr) = N[C@H](CC1CC1)C(=O)O; hArg = N=C(N)NCCCC[C@H](N)C(=O)O; 4Pal = N[C@@H](Cc1ccncc1)C(=O)O; ξVal(3-OH) = CC(C)(O)C(N)C(=O)O; Cha = N[C@@H](CC1CCCCC1)C(=O)O; Cit = NC(=O)NCCC[C@H](N)C(=O)O; Carboxymethyl = O=C(O)C*; Orn = NCCC[C@H](N)C(=O)O; Pra = C#CC[C@H](N)C(=O)O; Aun = NCCCCCCCCCCC(=O)O; Dab = NCC[C@H](N)C(=O)O; Nva = CCC[C@H](N)C(=O)O; Dap = NC[C@H](N)C(=O)O; AEEA = NCCOCCOCC(=O)O; ξC = NC(CS)C(=O)O

T1 sequence (Q15116 25-288): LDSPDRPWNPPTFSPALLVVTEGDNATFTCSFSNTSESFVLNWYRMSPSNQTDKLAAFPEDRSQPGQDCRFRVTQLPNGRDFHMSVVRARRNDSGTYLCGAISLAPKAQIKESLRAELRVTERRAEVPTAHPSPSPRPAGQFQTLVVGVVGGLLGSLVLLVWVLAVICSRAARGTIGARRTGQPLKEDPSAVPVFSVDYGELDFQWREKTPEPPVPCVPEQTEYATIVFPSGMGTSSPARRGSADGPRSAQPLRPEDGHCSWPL

This assay addresses T1, PD-1/PD-L1 interaction (PE-labeled human PD-L1-Ig binding to Jurkat cell line over-expressing human PD-1) (Homo sapiens, UniProt Q15116).
T1 construct: expressed in transfected cells; host or cells: Jurkat
The assay is described as follows: Jurkat-PD-1 Cell Binding High-Content Screening Assay (CBA). It counts as cell-based. The following applies: Jurkat cell line over-expressing human PD-1; PE-labeled PD-L1-Ig 20 nM final; read-out: Jurkat hPD1-PDL1 IC50. Put shortly: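 Jurkat cells over-expressing human PD-1 (8×10^3 per well, DMEM/10% FCS) preincubated with compound 2 h at 37° C, then PE-labeled human PD-L1-Ig (20 nM final) added for 1 h. Cells fixed with paraformaldehyde, Hoechst-stained, and bound fluorescence quantified by high-content imaging.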
With `Cc1cccc(C[C@@H]2NC(=O)[C@H](CC(=O)O)NC(=O)[C@H](Cc3ccc(OCC(=O)O)cc3)NC(=O)[C@H](CN)NC(=O)CSC[C@@H](C(=O)N[C@@H](CCN)C(=O)NCCCCCCCCCCC(=O)O)NC(=O)[C@H](CCCCN)NC(=O)[C@H](C(C)C)NC(=O)[C@H](CC3CCCCC3)NC(=O)[C@H](CCN)NC(=O)[C@@H](CC3CC3)NC(=O)[C@H](CCCN)NC(=O)[C@H](C(C)C)NC(=O)[C@H](Cc3ccc(-c4ccccc4)cc3)NC(=O)[C@H](C(C)C)NC2=O)c1` [Compound 2026] ({CH2CO}-[Dap]Y(Carboxymethyl)D[Phe(3-Me)]V[Bip]V[Orn][dAla(cPr)][Dab][Cha]VKC[Dab][Aun]-OH; thioether N-14), the IC50 worked out at 10.2 nM.

As to `CC(C)C[C@H]1NC(=O)[C@H](CCCN)NC(=O)[C@H](Cc2ccc(O)cc2)NC(=O)[C@H](Cc2ccc(-c3ccccc3)cc2)NC(=O)[C@H](C(C)C)NC(=O)[C@H](Cc2c[nH]c3ccccc23)NC(=O)[C@H](CC(=O)O)NC(=O)[C@H](Cc2ccc(OCC(=O)O)cc2)NC(=O)[C@H](CCCNC(=N)N)NC(=O)CSC[C@@H](C(=O)N[C@@H](CCN)C(=O)NCCCCCCCCCCC(=O)O)NC(=O)[C@H](CCCNC(N)=O)NC(=O)[C@H](C(C)C)NC(=O)[C@H](CC2CCCCC2)NC(=O)[C@H](CCN)NC1=O` [Compound 3411] ({CH2CO}-RY(Carboxymethyl)DWV[Bip]Y[Orn][dL][Dab][Cha]V[Cit]C[Dab][Aun]-OH; thioether N-14), the IC50 was 11 nM.

For the compound `CC[C@H](C)[C@@H]1NC(=O)[C@H](Cc2ccc(-c3ccccc3)cc2)NC(=O)[C@H](C(C)C)NC(=O)[C@H](Cc2c[nH]c3ccccc23)NC(=O)[C@H](CC(=O)O)NC(=O)[C@H](Cc2ccc(OCC(=O)O)cc2)NC(=O)[C@H](CN)NC(=O)CSCC(C(=O)NCCOCCOCC(=O)NCCCCCCCCCCC(=O)O)NC(=O)[C@H](CCCCN)NC(=O)[C@H](C(C)C)NC(=O)[C@H](CC2CCCCC2)NC(=O)[C@H](CCN)NC(=O)[C@@H](CC(C)C)NC(=O)[C@H](CCCN)NC1=O` (stereo partly drawn) [Compound 2644] ({CH2CO}-[Dap]Y(Carboxymethyl)DWV[Bip]I[Orn][dL][Dab][Cha]VK[ξC][AEEA][Aun]-OH; thioether N-14), the IC50 was 9.4 nM.

As for `C#CC[C@H](NC(=O)COCCOCCNC(=O)[C@@H]1CSCC(=O)N[C@@H](Cc2ccncc2)C(=O)N[C@@H](Cc2ccc(OCC(=O)O)cc2)C(=O)N[C@@H](CC(=O)O)C(=O)N[C@@H](Cc2c[nH]c3ccccc23)C(=O)N[C@@H](C(C)C)C(=O)N[C@@H](Cc2ccc(-c3ccccc3)cc2)C(=O)N[C@@H]([C@@H](C)CC)C(=O)N[C@@H](CCCN)C(=O)N[C@H](CC(C)C)C(=O)N[C@@H](CCN)C(=O)N[C@@H](CC(C)C)C(=O)N[C@@H](C(C)C)C(=O)N[C@@H]([C@@H](C)O)C(=O)N1)C(=O)N[C@@H](CN)C(=O)NCCCCCCCCCCC(=O)O` [Compound 1211] ({CH2CO}-[4Pal]Y(Carboxymethyl)DWV[Bip]I[Orn][dL][Dab]LVTC[AEEA][Pra][Dap][Aun]-OH; thioether N-14), the IC50 turned out to be 15.6 nM.

As to `CCC[C@@H]1NC(=O)CSC[C@@H](C(=O)N[C@@H](CCN)C(=O)NCCOCCOCC(=O)NCCCCCCCCCCCCC(=O)O)NC(=O)[C@H](CO)NC(=O)C(C(C)(C)O)NC(=O)[C@H](CC2CCCCC2)NC(=O)[C@H](CCN)NC(=O)[C@@H](CC(C)C)NC(=O)[C@H](CCCN)NC(=O)[C@H](Cc2ccc(OCC(=O)O)cc2)NC(=O)[C@H](Cc2ccc(-c3ccccc3)cc2)NC(=O)[C@H](Cc2ccc(OCC(=O)O)cc2)NC(=O)[C@H](Cc2cccc(C)c2)NC(=O)[C@H](CC(=O)O)NC(=O)[C@H](Cc2ccc(OCC(=O)O)cc2)NC1=O` (stereo partly drawn) [Compound 2252] ({CH2CO}-[Nva]Y(Carboxymethyl)D[Phe(3-Me)]Y(Carboxymethyl)[Bip]Y(Carboxymethyl)[Orn][dL][Dab][Cha][ξVal(3-OH)]SC[Dab][AEEA]-{NH(CH2)12COOH}; thioether N-14), the concentration for half-maximal inhibition (IC50) was 13.5 nM.

As for `CC(C)C[C@@H]1NC(=O)[C@H](Cc2c[nH]c3ccccc23)NC(=O)[C@H](CC(=O)O)NC(=O)[C@H](Cc2ccc(C(=O)O)cc2)NC(=O)[C@H](Cc2ccc(OCC(=O)O)cc2)NC(=O)CSC[C@@H](C(=O)NCCOCCOCC(=O)NCCCCCCCCCCC(=O)O)NC(=O)[C@H](CCCN)NC(=O)[C@H](C(C)C)NC(=O)[C@H](CC2CCCCC2)NC(=O)[C@H](CCN)NC(=O)[C@@H](CC(C)C)NC(=O)[C@H](CCCN)NC(=O)[C@H](Cc2ccc(O)cc2)NC(=O)[C@H](Cc2ccc(-c3ccccc3)cc2)NC1=O` [Compound 1240] ({CH2CO}-Y(Carboxymethyl)[Phe(4-COOH)]DWL[Bip]Y[Orn][dL][Dab][Cha]V[Orn]C[AEEA][Aun]-OH; thioether N-14), the IC50 was determined as 20.6 nM.

As to `Cc1cccc(C[C@@H]2NC(=O)[C@H](CC(=O)O)NC(=O)[C@H](Cc3ccc(OCC(=O)O)cc3)NC(=O)[C@H](CCCCNC(=N)N)NC(=O)CSC[C@@H](C(=O)N[C@@H](CCCN)C(=O)NCCCCCCCCCCC(=O)O)NC(=O)[C@H](CCCN)NC(=O)[C@H](C(C)C)NC(=O)[C@H](CC3CCCCC3)NC(=O)[C@H](CCN)NC(=O)[C@@H](CC(C)C)NC(=O)[C@H](CCCN)NC(=O)[C@H](C(C)C)NC(=O)[C@H](Cc3ccc(-c4ccccc4)cc3)NC(=O)[C@H](C(C)C)NC2=O)c1` [Compound 3247] ({CH2CO}-[hArg]Y(Carboxymethyl)D[Phe(3-Me)]V[Bip]V[Orn][dL][Dab][Cha]V[Orn]C[Orn][Aun]-OH; thioether N-14), the IC50 stood at 14.8 nM.

For the compound `Cc1cccc(C[C@@H]2NC(=O)[C@H](CC(=O)O)NC(=O)[C@H](Cc3ccc(OCC(=O)O)cc3)NC(=O)[C@H](CN)NC(=O)CSC[C@@H](C(=O)N[C@@H](CCN)C(=O)NCCOCCOCC(=O)NCCCCCCCCCCC(=O)O)NC(=O)[C@H](CCCN)NC(=O)[C@H](C(C)C)NC(=O)[C@H](CC3CCCCC3)NC(=O)[C@H](CCN)NC(=O)[C@@H](CC(C)C)NC(=O)[C@H](CCCN)NC(=O)[C@H](Cc3ccc(C(=O)O)cc3)NC(=O)[C@H](Cc3ccc(-c4ccccc4)cc3)NC(=O)[C@H](C(C)C)NC2=O)c1` [Compound 2062] ({CH2CO}-[Dap]Y(Carboxymethyl)D[Phe(3-Me)]V[Bip][Phe(4-COOH)][Orn][dL][Dab][Cha]V[Orn]C[Dab][AEEA][Aun]-OH; thioether N-14), the IC50 worked out at 7 nM.

As to `Cc1cccc(C[C@@H]2NC(=O)[C@H](CC(=O)O)NC(=O)[C@H](Cc3ccc(OCC(=O)O)cc3)NC(=O)[C@H](Cc3ccncc3)NC(=O)CSC[C@@H](C(=O)N[C@@H](CCN)C(=O)NCCCCCCCCCCC(=O)O)NC(=O)[C@H](CO)NC(=O)[C@H](C(C)(C)O)NC(=O)[C@H](CC3CCCCC3)NC(=O)[C@H](CCN)NC(=O)[C@@H](CC(C)C)NC(=O)[C@H](CCCN)NC(=O)[C@H](Cc3ccc(O)cc3)NC(=O)[C@H](Cc3ccc(-c4ccccc4)cc3)NC(=O)[C@H](Cc3ccc(C(N)=O)cc3)NC2=O)c1` [Compound 3717] ({CH2CO}-[4Pal]Y(Carboxymethyl)D[Phe(3-Me)][Phe(4-CONH2)][Bip]Y[Orn][dL][Dab][Cha][Val(3-OH)]SC[Dab][Aun]-OH; thioether N-14), the IC50 amounted to 5 nM.

The record behind these values is patent US20260022142A1, “MACROCYCLIC IMMUNOMODULATORS” (Bristol-Myers Squibb Company, priority 2022, published 2026).
